Experimental data as given in ChEMBL document CHEMBL3507680, “University of Dundee, Gates Library screen for HepG2 cell viability”.

Experiment: Human HepG2 cell viability assay in 384 well format
Assay type: toxicity, cell-based
Parameters: dose 125 nL, time 70.5 hour; concentration not given beside the values
Conditions: HepG2 cells, read-out: Inhibition

Row | SMILES | cytotoxicity at 70.5 h [%]
1 | Cc1ccc2nc(NCCN3CCOCC3)n(C)c(=O)c2c1 | 0.444
2 | CCCS(=O)(=O)NCc1ncc(C)c(OC)c1C | 9.44
3 | CO[C@H]1COCCN(C(=O)c2ccno2)C1 | -1.71
4 | OCCN1CCN(CCOCC(F)(F)F)CC1 | 10.9
5 | Cc1nc(CN2C(=O)C[C@H]3[C@H]2CCN3CC2CCOC2)cs1 (stereo not given in full) | 2.38
6 | Cc1cc(C)c(CNC(=O)C2CCN(c3cnccn3)CC2)c(=O)[nH]1 | -3.48
7 | CCn1cnnc1CN(C)Cc1c[nH]nc1-c1ccc(F)cc1 | -1.22
8 | CN(C)CCN1CC(C(=O)N(C)Cc2cc3cc(F)ccc3[nH]2)CC1=O (stereo not given) | -7.58
9 | O=C(O)c1c(-c2cncnc2)ncc2c1CCN(Cc1cccnc1)C2 | 2.19
10 | CN(C)[C@H]1CCCCN(C(=O)c2cccc(-c3cccc(F)c3)c2)C1 | -4.14
11 | O=C(Cc1n[nH]c(-c2cncc(Br)c2)n1)NCc1ccncc1 | -9.88
12 | COC(C)(C)c1noc(C2(C#N)CCCCC2)n1 | -0.329
13 | CN1CCOC(CN(C(=O)CC2CCCC2)c2nccs2)C1 (stereo not given) | 4.76
14 | O=C1CN(C(=O)CSC2CCCc3ccccc32)CCN1 (stereo not given) | 5.33
15 | COC1CCCOC12CCN(C(=O)NCc1ccco1)CC2 (stereo not given) | -1.17
16 | COc1c(C2CCCN2Cc2noc(C)n2)c(C)nn1C (stereo not given) | 44.7
17 | COCCC1(C(=O)O)CCCN(CCc2ccccc2)C1 (stereo not given) | -7.32
18 | O=C(N[C@@H]1CCN(Cc2ccc(F)cc2F)C[C@H]1O)c1cccnc1 | 8.03
19 | O=C1N(c2ccsc2)CCC12CCCN(c1ccccn1)C2 (stereo not given) | 5.29
20 | O=C(CC1CN(Cc2ccccc2)CCO1)Nc1ccsc1 (stereo not given) | 8.64
21 | Cc1nn(C)c2nc(N(Cc3ccncc3)CC3CCCO3)sc12 (stereo not given) | -5.1
22 | O=C(c1ccn(-c2ccc(F)cc2)n1)N1CCCC(n2ccnc2)C1 (stereo not given) | -6.02
23 | COc1nc(C)c(C(=O)N2CCC(C(O)Cc3ccccc3)CC2)s1 (stereo not given) | -11.5

Row | SMILES | cytotoxicity at 70.5 h [%]
24 | CC(C(=O)Nc1cccc(N2CCCCC2)c1)n1cncn1 (stereo not given) | -6.3
25 | Cn1ncc2c1CCCC2NCc1cc(Br)cs1 (stereo not given) | -0.587
26 | CC(OCC1CC1)C(=O)Nc1nccn1Cc1ccccc1 (stereo not given) | -14.6
27 | Cc1nc(CN2CCC(CNC(=O)C3CCOC3)CC2)oc1C (stereo not given) | 16.3
28 | CC(C)c1nn(C)c(N(C)C)c1CNC1CCC(O)CC1 (stereo not given) | -6.96
29 | CC(C)NC(=O)Nc1ccc(CNCc2cccc(C#N)c2)cc1 | -3.33
30 | Cc1nc(CCNCc2c(C)nn(C)c2N2CCOCC2)cs1 | -0.903
31 | Cc1nc(N)ccc1CC1COc2ccccc2C1 (stereo not given) | 15
32 | COc1cc2c(c(OC)c1OC)CCN(CCn1nc(C)cc1C)CC2 | -6.93
33 | CN(Cc1cccc(C#N)c1)C(=O)C1CC(c2cccc(F)c2)=NO1 (stereo not given) | -6.75
34 | Brc1ccc(CNCc2nnc3n2CCC3)s1 | 14.8
35 | Cc1ccc(-c2cccc(N3CCC(NC4CCOCC4)CC3)c2)cc1 | -2.04
36 | Cc1nc(CN2CC[C@H]3[C@@H]2CCC(=O)N3c2cnn(C)c2)cs1 | 13.5
37 | CCc1nn(-c2cc(Oc3cc(C)ccc3C)nc(C)n2)c(N)c1C#N | 28.3
38 | C=Cn1cc(CN2CCC(c3ncc(Cl)cc3S(C)(=O)=O)CC2)c(C)n1 | -3.31
39 | N#CC1(C(=O)NCC2CCC3(CCNCC3)O2)CC1 (stereo not given) | 20
40 | N#Cc1ccc(CN2C(=O)c3ccccc3CS2(=O)=O)c(F)c1 | 2.45
41 | Cc1ccc(CN2CCC3(CC(C(=O)NC4CCC4)=NO3)C2)o1 (stereo not given) | -14.5
42 | CN1CCN(C2CCOCC2)CC12CCC(=O)N(CC1CC1)CC2 (stereo not given) | -6.33
43 | Cc1nn(C)c(C)c1CC(=O)N1CCCN(c2cccnn2)CC1 | 5.97
44 | Cc1ccnc(NC(=O)c2ccc(Br)o2)c1 | -4.47
45 | O=C(c1cccs1)N1CCC[C@]2(C[C@@H](OCc3ccncc3)CO2)C1 | -4.03
46 | CC(C)CN1CCC(C(=O)NCCNC(=O)c2ccco2)CC1 | -5.07

Row | SMILES | cytotoxicity at 70.5 h [%]
47 | CCc1c(C)nc(C)nc1N1C[C@@H](CN(C)CCN(C)C)[C@@H](CO)C1 | -9.98
48 | O=C1N(Cc2ccccn2)C[C@H]2CN(S(=O)(=O)c3ccccc3)CCN12 | -0.174
49 | CNc1ccc(CC2CCCN(C(=O)c3scnc3C)C2)nn1 (stereo not given) | -5.63
50 | COCc1nc(CNc2cc(C)on2)cs1 | -3.59
51 | Cn1ncc2c(=O)[nH]c(N3CCN(C(=O)c4ccsc4)CC3)nc21 | 14.1
52 | CCOc1ccccc1C(=O)N1CCCC(c2nccn2CCOC)C1 (stereo not given) | 10.7
53 | Cc1nc(NCc2scnc2-c2ccccc2)cc(C2CCNCC2)n1 | -6.26
54 | CCCC(=O)N1CCC(c2cc3n(n2)[C@@H](C(F)(F)F)C[C@@H](C)N3)CC1 | -3.97
55 | CN1CCOC(CNCc2coc(-c3ccc(Cl)cc3)n2)C1 (stereo not given) | -2.49
56 | COCCN1CCCN(C(=O)c2scnc2C)CC1 | -3.53
57 | Cc1csc(C2CCCCN2C(=O)Cn2cncn2)n1 (stereo not given) | 20.9
58 | CC(NC(=O)NCCCc1n[nH]c(N)c1C#N)c1ccccc1 (stereo not given) | 26.6
59 | CC(Cn1cncc1-c1cnn(Cc2ccccc2)c1)N1CCCCC1 (stereo not given) | -1.65
60 | CCS(=O)(=O)N1CCC2(CC(=O)N(c3ccccc3C)C2)C1 (stereo not given) | 21.9
61 | CCc1nc(CN2CCCC2C(=O)NC)cs1 (stereo not given) | -0.35
62 | CCNc1cc2c(nn1)CCN(C(=O)CCc1c(C)noc1C)C2 | 18.9
63 | COCC1Cn2nnc(-c3cnn(C)c3)c2CN1Cc1ccsc1 (stereo not given) | -9.05
64 | O=C(O)c1ccc2c(c1)C1(CCCCC1)CN2C(=O)c1cccc(F)c1 | 8.94
65 | O=C(Cc1ccc(O)c(F)c1)N1CCN(CC2CC2)[C@@H]2CS(=O)(=O)C[C@@H]21 | -6.03
66 | O=C(CCOc1ccc(Cl)cc1)NCCCn1cccn1 | 23.1
67 | O=C(NCCN1CCCCC1)c1nc(-c2cccc3[nH]ccc23)no1 | 13.5
68 | Cc1cc2n(n1)[C@@H](C(F)(F)F)C[C@@H](C1CCN(C(=O)C3CC3)CC1)N2 | -2.95
69 | CSc1nc2ncc3c(=O)n(CCN4CCCCC4)ccc3n2n1 | -4.31

Row | SMILES | cytotoxicity at 70.5 h [%]
70 | CS(=O)(=O)N1CCN(Cc2ccc(F)cc2Br)CC1 | -9.98
71 | CC(C)=CCN1CCC2(CC1)CC(=O)N(Cc1cc(F)cc(F)c1)C2 | 2.51
72 | CC(CNC(=O)CCCc1ccccn1)c1ccsc1 (stereo not given) | -12.4
73 | COc1c(CNCCc2c[nH]c3ccccc23)c(C(C)C)nn1C | 2.12
74 | CN1C(=O)C2(CCN(C(=O)c3ccccc3)CC2)c2cccc(F)c21 | 0.835
75 | O=C1NCCCCC1NC(=O)N1CCCc2ccccc21 (stereo not given) | -12.7
76 | CCOc1cc(C)ccc1NS(=O)(=O)c1cc(C)c(C(=O)O)s1 | -1.53
77 | Cc1ccc(-c2cccc(-c3ccn(CCN4CCCC4)n3)c2)nn1 | -6.29
78 | Cc1ccc(OC2CCN(CCn3cncn3)CC2)cc1 | -10.7
79 | CN(C)C(=O)c1ccc2c(c1)N(C)C(CC(=O)NC(CO)CO)CO2 (stereo not given) | -7.74
80 | CN1CC2(CCN(C(=O)COc3ccc(Cl)cc3Cl)CC2)OC1=O | 14.5
81 | O=C(c1cc(Br)c[nH]1)N1CCN(Cc2ccco2)CC1 | 5.49
82 | CC(=O)c1cccc(NC(=O)N(CC(F)F)C2CC2)c1 | 19.6
83 | COc1ccccc1OCCC(=O)N1CCCC1Cn1cccn1 (stereo not given) | 2.97
84 | CSC(C)C(=O)NCCC(=O)N1CCN(c2ccccn2)CC1 (stereo not given) | -3.28
85 | Cc1ccc(S(=O)(=O)Nc2ccc(C)c(C(=O)O)c2)s1 | -0.348
86 | O=C(CC1CCc2ccccc21)NC1(C(=O)O)CCCC1 (stereo not given) | 22.9
87 | Cc1ccccc1OC1CCN(CC(=O)Nc2c(C)nn(C)c2C)CC1 | 1.35
88 | CN1CCN(c2ncccc2N)CC1 | -11.7
89 | O=C(NCCOCC1CC1)Nc1ccc(F)cc1 | -9.49
90 | Cc1ccc(C(=O)N2CC[C@@]3(O)CCN(C(=O)N(C)C)C[C@H]3C2)cc1Cl | -8.07
91 | CCNc1cc2c(nn1)CCN(C(=O)CC1CCCCC1)C2 | -4.16
92 | O=C(NCCN1CCOCC1)c1cnc(-c2ccccc2F)s1 | -3.87

Row | SMILES | cytotoxicity at 70.5 h [%]
93 | CCc1c(C)sc2nc3n(CC(N)=O)nc(SC)n3c(=O)c12 | 5.38
94 | COc1cccc(CN2CCCCC2c2n[nH]cc2-c2cc(C)no2)c1 (stereo not given) | -3.89
95 | CS(=O)(=O)NCc1cc2n(n1)CCCN(Cc1cc3ccccc3o1)C2 | -5.83
96 | CC(C)n1ncc2cc(NC(=O)N3CCC(N4CCCC4)C3)cnc21 (stereo not given) | 1.93
97 | Cc1nc2cc(=O)[nH]n2c(C)c1CNC(=O)C(C)(C)c1ccccc1 | -1.88
98 | Cc1cnn(CCNCc2nc(-c3ccccn3)no2)c1 | -6.05
99 | CN(C)CCN1CCN(Cc2nccs2)Cc2cccnc21 | 2.78
100 | COc1cccc(OCC(=O)NS(=O)(=O)c2ccc(Br)s2)c1 | 0.256
101 | O=C1CCCCN1CCCNCc1cnc(C2CCC2)s1 | 0.195
102 | CC(Cn1cccn1)NC(=O)Nc1ccc(N(C)C)nc1 (stereo not given) | 19.1
103 | COc1cccc(C(=O)NCC(c2cccn2C)N2CCCC2)c1OC (stereo not given) | 3.39
104 | CCN(Cc1ccco1)C(=O)NCC(c1cccs1)N(C)C (stereo not given) | 20.6
105 | CS(=O)(=O)NC1CCN(C(=O)NCCc2ccccc2F)CC1 | -5.64
106 | COCCN1C[C@@H]2CCCO[C@@H]2[C@H](NC(=O)c2cnccn2)C1 | -0.647
107 | COc1ccc(OC)c(C(=O)N(C)Cc2ncc(C)c(OC)c2C)c1 | -9
108 | CNC(=O)c1cc(-c2ccccc2OC)[nH]n1 | -5.34
109 | CC(C)(C)c1nnc(CNc2cc(F)ccc2OCC2CCCO2)o1 (stereo not given) | 32.8
110 | COc1ncccc1C(=O)N1CCN(C(=O)Cc2ccccn2)CC1 | 6.6
111 | Cc1cccc(CN2CC3(CCNCC3)OCC2=O)n1 | 0.469
112 | Cc1nc(C2CN(Cc3ccc(F)cc3Br)CCO2)no1 (stereo not given) | -5.56
113 | CCCc1cncnc1N1CCC2(CCC(=O)N(CCCO)C2)CC1 | -10.1
114 | NC(=O)C1CCN(CC(=O)N2CCCC2c2ccsc2)CC1 (stereo not given) | -4.16
115 | COCC(NC(=O)c1ccoc1)c1ccc(C)o1 (stereo not given) | -2.43
